These results are taken from US20260091143A1, “NEAR-INFRARED IMAGING AGENT AND USES THEREOF” (CASE WESTERN RESERVE UNIVERSITY, priority 2022, published 2026).

Where no end group is shown, it is not given here.

For data set [1], the system named is LN-229 glioma flank tumor. Put plainly: In vivo fluorescent imaging of tumor signal in LN-229 flank tumor-bearing nude mice. The settings on record: for p-value, in vivo tumor ROI mean, ICG vs SBK2-CLE-ICG: ICG 400 nmol/kg vs 300 nmol/kg SBK2-CLE-ICG; for p-value, in vivo tumor ROI mean, ICG vs SBK2-CLE-ICG / p-value, in vivo tumor ROI mean, ICG vs SBK2-ICG / p-value, in vivo tumor ROI mean, ICG vs Scram-CLE-ICG / p-value, in vivo tumor ROI mean, ICG vs Scram-ICG: Welch's t-test; for p-value, in vivo tumor ROI mean, ICG vs SBK2-ICG: ICG 400 nmol/kg vs 300 nmol/kg SBK2-ICG; for p-value, in vivo tumor ROI mean, ICG vs Scram-CLE-ICG: ICG 400 nmol/kg vs 300 nmol/kg Scram-CLE-ICG; for p-value, in vivo tumor ROI mean, ICG vs Scram-ICG: ICG 400 nmol/kg vs 300 nmol/kg Scram-ICG. An excerpt: (§1) All applicable institutional and/or NIH guidelines for the care and use of animals were followed. The Case Western Reserve University Institutional Animal Care and Use Committee reviewed and approved the animal protocols. Outbred homozygous female nude mice (Fox1^nu/Fox1^nu) were purchased from Jackson Laboratory, Bar Harbor, ME, USA. Details of the human glioblastoma LN-229 cell line have been described previously. LN-229 cells express the PTPμ biomarker and have been used in previous studies for evaluating PTPμ-targeted agents using different imaging modalities. Flank tumors were started in the right flank of mice at approximately 7 weeks of age by injecting a mixture of 2×10^6 cells and Matrigel® Matrix (Corning®, Corning Inc., Corning, NY, USA). Experiments were performed in mice 4 to 8 weeks after implanting the tumors.
(§2) The IVIS Spectrum In vivo Imaging System and Living Image analysis software, (Perkin Elmer, Hopkinton, MA, USA) were used for acquisition and analysis of mouse images. Prior to the experiment, mice were weighed, and baseline images acquired using the appropriate filter sets and the autoexposure setting. Three filter sets for excitation/emission were used: 745 nm/800 nm, 745 nm/820 nm, 745 nm/840 nm. The filter set showing highest fluorescence intensity for a fluorophore was used throughout for that dye. For ICG, 745 nm/820 nm was used and for IRDye® 800CW and Tide Fluor™ 8WS, 745 nm/800 nm was used. Agent stocks were diluted in saline or PBS to ˜100 μM and the volume needed for the desired dose of 300 nmol/kg or 400 nmol/kg calculated. Doses were loaded into polyurethane tubing and connected to a 1 mL syringe as previously described. Mice were anesthetized in an induction chamber with 2% isoflurane-oxygen and moved onto a 37° C. heated platform with a nose cone. 26-gauge veterinary catheters were placed in each tail and the preloaded tubing was connected. Agents were injected over 30 sec, catheters were removed, and animals placed in the prepared Spectrum imaging chamber. Images were acquired beginning 10 min after injecting the agents. For SBK2-CCLE-IR800 and Scram-CCLE-IR800, images were acquired every 10 min for 60 min. For the ICG-labeled and TF8WS-labeled peptides, images were acquired at 10 min, 30 min, 1 h, 2 h, 4 h, 8 h, and 24 h. At the end of the imaging time, the animals were euthanized by CO2 asphyxiation, and the tumor and other organs excised and imaged on the Spectrum.
(§3) Living Image analysis software was used for region of interest (ROI) analysis of the optical data. Images acquired for each time point consist of a fluorescent image superimposed on a photographic image. Binning was set to 1 and in vivo tumor ROIs were manually drawn based on contours visible in the black and white photograph for each timepoint. After outlining the tumor ROIs, fluorescence was measured with the built-in Spectrum function. For excised tumors, kidneys, spleen and liver, ROIs were drawn around the perimeter of the tumor or organ.
(§4) LivingImage software measures fluorescence intensity in units of radiant efficiency. For these analyses, average radiant efficiency measurements in (photons/s/cm^2/steradian)/(μW/cm^2) were used for further comparisons to account for differences in tumor and organ size. GraphPad Prism 9 was used for plots and statistical analyses. Where indicated, means for pairs of agents were compared using a two-tailed t-test with Welch's correction and statistical significance was assumed at p<0.05. Welch's correction was used to eliminate assumptions about variance between the groups being compared.

Data set [2] is described as follows: Whole-body and ventral fluorescent imaging of biodistribution and clearance. The settings on record: for clearance via the renal system: mouse, in vivo. It counts as in vivo, mice.
Text: as §2

Data set [3] is described as follows: Ex vivo fluorescence in excised kidneys, spleen and liver. Details: species or system mice.
Text: as §2, §3, §4

Data set [4] concerns LN-229 glioma flank tumor. Put plainly: Ex vivo fluorescence of excised tumors. Type of data set: in vivo, mice. As to conditions: 24 h, ICG-labeled agents 300 nmol/kg, ICG 400 nmol/kg, Welch's t-test.
Text: as §1, §2
Living Image analysis software was used for region of interest (ROI) analysis of the optical data. […] After outlining the tumor ROIs, fluorescence was measured with the built-in Spectrum function. […]
LivingImage software measures fluorescence intensity in units of radiant efficiency. […]

Data set [5] in a line: RP-HPLC and LC-MS/MS of IRDye 800CW-labeled agent stocks warmed to room temperature. Type of data set: physicochemical. As to conditions: RP-HPLC. The source says: The hydrophilic nature and pH sensitivity of the IRDye® 800CW precluded on-resin coupling in the organic solvents and TFA-based cleavage cocktail used for ICG-labeled molecules. IRDye® 800CW maleimide was conjugated in aqueous solution following the manufacturer's recommended protocol to cysteine residues at the N-termini of the peptides and obtained at >95% purity from PolyPeptide Group. Additional LC-MS/MS analyses using an Orbitrap Elite LC-MS, purchased via an NIH shared instrument grant, 1S10RR031537-01, were performed on these agents by the Lerner Research Institute Proteomics Core at the Cleveland Clinic.
Similar to Tide Fluor™ 8WS, the hydrophilic nature of the IRDye® 800CW results in elution of the SBK2-CCLE-IR800 at around 25 min (FIG. 7). In assessing the IRDye® 800CW-labeled agents by RP-HPLC however, a second peak appeared when the SBK2-CCLE-IR800 and Scrambled-CCLE-IR800 stocks were warmed to room temperature. LC-MS/MS analysis was performed and confirmed the identity of the main peak as belonging the agents with the closed succinimide ring, while the second peak, representing around 30% of the material, and eluting slightly earlier than the main peak was identified as containing an open succinimide ring (FIG. 1).

The mark [6] stands for this setting: Kidney, 24 h, ICG-labeled agents 300 nmol/kg, ICG 400 nmol/kg, Welch's t-test.
[7] abbreviates: Liver, 24 h, ICG-labeled agents 300 nmol/kg, ICG 400 nmol/kg, Welch's t-test.
Where [8] appears, read: Spleen, 24 h, ICG-labeled agents 300 nmol/kg, ICG 400 nmol/kg, Welch's t-test.

With `CC1(C)C(/C=C/C=C/C=C/C=C2\N(CCCCS(=O)(=O)O)c3ccc4ccccc4c3C2(C)C)=[N+](CCCCS(=O)(=O)[O-])c2ccc3ccccc3c21` [ICG, indocyanine green], in data set [1] (10 min), the “p-value, in vivo tumor ROI mean, ICG vs SBK2-CLE-ICG” value (from here on “p-value … ICG vs SBK2-CLE-ICG”) is recorded as under 0.001; the “p-value, in vivo tumor ROI mean, ICG vs SBK2-ICG” value (“p-value … ICG vs SBK2-ICG” below) is on record as under 0.001; the “p-value, in vivo tumor ROI mean, ICG vs Scram-CLE-ICG” value (shortened to “p-value … ICG vs Scram-CLE-ICG”) was under 0.001; the “p-value, in vivo tumor ROI mean, ICG vs Scram-ICG” value (from here on “p-value … ICG vs Scram-ICG”) is reported as under 0.001. Also, in data set [1] (30 min), the “p-value … ICG vs SBK2-CLE-ICG” value is recorded as under 0.001; the “p-value … ICG vs SBK2-ICG” value is under 0.001; the “p-value … ICG vs Scram-CLE-ICG” value is recorded as under 0.001; the “p-value … ICG vs Scram-ICG” value is reported as under 0.001. In data set [1] (24 h), the “p-value … ICG vs SBK2-CLE-ICG” value is on record as under 0.001; the “p-value … ICG vs SBK2-ICG” value was under 0.001; the “p-value … ICG vs Scram-CLE-ICG” value was “ns”; the “p-value … ICG vs Scram-ICG” value is listed as under 0.001. Further, in data set [1] (ICG dye 400 nmol/kg), the “in vivo tumor fluorescence produced” value is “very little in vivo tumor fluorescence” and the “time of peak in vivo tumor signal” value is at most 10 min. Besides, in data set [2] (ICG dye 400 nmol/kg), the “clearance compared to ICG-conjugated peptides” value is given as “cleared much more rapidly”. Further, in data set [3] (setting [6]), the “p-value, average radiant efficiency of excised kidney vs SBK2-CLE-ICG” value is under 0.001; the “p-value, average radiant efficiency of excised kidney vs SBK2-ICG” value is under 0.001; the “p-value, average radiant efficiency of excised kidney vs Scram-CLE-ICG” value is on record as 0.008; the “p-value, average radiant efficiency of excised kidney vs Scram-ICG” value was determined as 0.003. In data set [3] (setting [7]), the “p-value, average radiant efficiency of excised liver vs SBK2-CLE-ICG” value is 0.004; the “p-value, average radiant efficiency of excised liver vs SBK2-ICG” value is given as under 0.001; the “p-value, average radiant efficiency of excised liver vs Scram-CLE-ICG” value was under 0.001; the “p-value, average radiant efficiency of excised liver vs Scram-ICG” value came to 0.013. In addition, in data set [3] (setting [8]), the “p-value, average radiant efficiency of excised spleen vs SBK2-CLE-ICG” value is on record as under 0.001; the “p-value, average radiant efficiency of excised spleen vs SBK2-ICG” value is on record as under 0.001; the “p-value, average radiant efficiency of excised spleen vs Scram-CLE-ICG” value was under 0.001; the “p-value, average radiant efficiency of excised spleen vs Scram-ICG” value was determined as 0.004. In addition, in data set [4], the “p-value, average radiant efficiency of excised tumor vs SBK2-CLE-ICG” value amounted to 0.003; the “p-value, average radiant efficiency of excised tumor vs SBK2-ICG” value is listed as under 0.001; the “p-value, average radiant efficiency of excised tumor vs Scram-CLE-ICG” value worked out at 0.019; the “p-value, average radiant efficiency of excised tumor vs Scram-ICG” value is recorded as 0.003.
On to “SBK2-CCLE-IR800: IRDye 800CW maleimide conjugated to N-terminal cysteine of C.GGSGGS.GEGDDFNWEQVNTLTKPTSD (SEQ ID NO: 50) ({C(IRDye 800CW maleimide)}-GGSGGSGEGDDFNWEQVNTLTKPTSD)”, for which the “difference in in vivo tumor average radiant efficiency vs Scram-CCLE-IR800” value in data set [1] (400 nmol/kg, every ten minutes for 60 minutes) was “No significant differences”. In data set [1] (400 nmol/kg, versus Scrambled control agents), the specific tumor labeling result is recorded as “no specific tumor labeling”. For the same compound, the “clearance via the renal system” value in data set [2] is reported as “more rapidly than expected”. Moreover, in data set [5], the “second peak containing an open succinimide ring, share of the material” value is given as “around 30%”.
“Scram-CCLE-IR800: IRDye 800CW maleimide conjugated to N-terminal cysteine of C.GGSGGS.GFTQPETGTDNDLWSVDNEK (SEQ ID NO: 51) ({C(IRDye 800CW maleimide)}-GGSGGSGFTQPETGTDNDLWSVDNEK)”: in data set [2], the “clearance via the renal system” value is “more rapidly than expected”. Also, the “difference in liver fluorescence vs SBK2-CCLE-IR800” value in data set [3] (400 nmol/kg, 60 min, liver) was “No significant difference”. In data set [5], the “second peak containing an open succinimide ring, share of the material” value is listed as “around 30%”.
